Experimental data from PubChem BioAssay AID1259407 (Chemical Carcinogenesis Research Information System (CCRIS), 2018).
Calls of active or inactive are those of the source. No rule for the calls is given here.

System: CCRIS mutagenicity, Ames/micronucleus/aberration tests
Assay: CCRIS mutagenicity studies

Q: Which mutagenic call (Test System: AMES SALMONELLA TYPHIMURIUM, Strain/Indicator: TA98 (1,8-DNP6), Metabolic Activation: RAT LIVER, CYTOSOL, AROCLOR 1254, Method: STANDARD PLATE) does the source give for Nc1cc2c3ccccc3ccc2c2ccccc12 here?
A: inactive; negative

Q: What about the mutagenic call (Test System: AMES SALMONELLA TYPHIMURIUM, Strain/Indicator: TA98 (1,8-DNP6), Metabolic Activation: RAT LIVER, MICROSOMES, AROCLOR 1254, Method: STANDARD PLATE) of the same compound?
A: active; positive

Q: And the mutagenic call (Test System: AMES SALMONELLA TYPHIMURIUM, Strain/Indicator: TA98, Metabolic Activation: FERRET, LIVER, CYTOSOL, Method: STANDARD PLATE)?
A: inactive; negative

Q: What about the mutagenic call (Test System: AMES SALMONELLA TYPHIMURIUM, Strain/Indicator: TA98, Metabolic Activation: FERRET, LIVER, MICROSOMES, Method: STANDARD PLATE) of the same compound?
A: inactive; negative

Q: And the mutagenic call (Test System: AMES SALMONELLA TYPHIMURIUM, Strain/Indicator: TA98, Metabolic Activation: HAMSTER, LIVER, CYTOSOL, Method: STANDARD PLATE)?
A: inactive; negative

Q: And the mutagenic call (Test System: AMES SALMONELLA TYPHIMURIUM, Strain/Indicator: TA98, Metabolic Activation: HAMSTER, LIVER, MICROSOMES, Method: STANDARD PLATE)?
A: active; positive

Q: What about the mutagenic call (Test System: AMES SALMONELLA TYPHIMURIUM, Strain/Indicator: TA98, Metabolic Activation: HUMAN, LIVER, CYTOSOL, Method: STANDARD PLATE) of the same compound?
A: active; positive

Q: And the mutagenic call (Test System: AMES SALMONELLA TYPHIMURIUM, Strain/Indicator: TA98, Metabolic Activation: NONE, Method: PREINCUBATION)?
A: active; positive

Q: What about the mutagenic call (Test System: AMES SALMONELLA TYPHIMURIUM, Strain/Indicator: TA98, Metabolic Activation: PIG, LIVER, CYTOSOL, Method: STANDARD PLATE) of the same compound?
A: active; positive

Q: And the mutagenic call (Test System: AMES SALMONELLA TYPHIMURIUM, Strain/Indicator: TA98, Metabolic Activation: PIG, LIVER, MICROSOMES, Method: STANDARD PLATE)?
A: inactive; negative

Q: What about the mutagenic call (Test System: AMES SALMONELLA TYPHIMURIUM, Strain/Indicator: TA98, Metabolic Activation: RAT LIVER, CYTOSOL, AROCLOR 1254, Method: STANDARD PLATE) of the same compound?
A: active; positive

Q: What about the mutagenic call (Test System: AMES SALMONELLA TYPHIMURIUM, Strain/Indicator: TA98, Metabolic Activation: RAT LIVER, MICROSOMES, AROCLOR 1254, Method: STANDARD PLATE) of the same compound?
A: active; positive

Q: And the mutagenic call (Test System: AMES SALMONELLA TYPHIMURIUM, Strain/Indicator: TA98, Metabolic Activation: RAT, LIVER, CYTOSOL, AROCLOR 1254, Method: STANDARD PLATE)?
A: active; positive

Q: And the mutagenic call (Test System: AMES SALMONELLA TYPHIMURIUM, Strain/Indicator: TA98, Metabolic Activation: RAT, LIVER, CYTOSOL, BENZO[A]PYRENE, Method: STANDARD PLATE)?
A: active; positive

Q: And the mutagenic call (Test System: AMES SALMONELLA TYPHIMURIUM, Strain/Indicator: TA98, Metabolic Activation: RAT, LIVER, CYTOSOL, CLOFIBRATE, Method: STANDARD PLATE)?
A: active; positive

Q: What about the mutagenic call (Test System: AMES SALMONELLA TYPHIMURIUM, Strain/Indicator: TA98, Metabolic Activation: RAT, LIVER, CYTOSOL, DEXAMETHASONE, Method: STANDARD PLATE) of the same compound?
A: active; positive

Q: What about the mutagenic call (Test System: AMES SALMONELLA TYPHIMURIUM, Strain/Indicator: TA98, Metabolic Activation: RAT, LIVER, CYTOSOL, ISONIAZID, Method: STANDARD PLATE) of the same compound?
A: active; positive

Q: And the mutagenic call (Test System: AMES SALMONELLA TYPHIMURIUM, Strain/Indicator: TA98, Metabolic Activation: RAT, LIVER, CYTOSOL, PHENOBARBITAL, Method: STANDARD PLATE)?
A: active; positive

Q: And the mutagenic call (Test System: AMES SALMONELLA TYPHIMURIUM, Strain/Indicator: TA98, Metabolic Activation: RAT, LIVER, MICROSOMES, AROCLOR 1254, Method: STANDARD PLATE)?
A: active; positive

Q: What about the mutagenic call (Test System: AMES SALMONELLA TYPHIMURIUM, Strain/Indicator: TA98, Metabolic Activation: RAT, LIVER, MICROSOMES, BENZO[A]PYRENE, Method: STANDARD PLATE) of the same compound?
A: active; positive

Q: What about the mutagenic call (Test System: AMES SALMONELLA TYPHIMURIUM, Strain/Indicator: TA98, Metabolic Activation: RAT, LIVER, MICROSOMES, CLOFIBRATE, Method: STANDARD PLATE) of the same compound?
A: active; positive

Q: And the mutagenic call (Test System: AMES SALMONELLA TYPHIMURIUM, Strain/Indicator: TA98, Metabolic Activation: RAT, LIVER, MICROSOMES, DEXAMETHASONE, Method: STANDARD PLATE)?
A: active; positive

Q: And the mutagenic call (Test System: AMES SALMONELLA TYPHIMURIUM, Strain/Indicator: TA98, Metabolic Activation: RAT, LIVER, MICROSOMES, ISONIAZID, Method: STANDARD PLATE)?
A: active; positive

Q: And the mutagenic call (Test System: AMES SALMONELLA TYPHIMURIUM, Strain/Indicator: TA98, Metabolic Activation: RAT, LIVER, MICROSOMES, PHENOBARBITAL, Method: STANDARD PLATE)?
A: active; positive

Q: What about the mutagenic call (Test System: AMES SALMONELLA TYPHIMURIUM, Strain/Indicator: TA98, Metabolic Activation: RAT, LIVER, MICROSOMES, Method: STANDARD PLATE) of the same compound?
A: active; positive

Q: And the mutagenic call (Test System: AMES SALMONELLA TYPHIMURIUM, Strain/Indicator: TA98, Metabolic Activation: RAT, LIVER, S-9, AROCLOR 1254, Method: PREINCUBATION)?
A: active; positive

Q: And the mutagenic call (Test System: AMES SALMONELLA TYPHIMURIUM, Strain/Indicator: TA100, Metabolic Activation: NONE, Method: PREINCUBATION)?
A: active; positive

Q: And the mutagenic call (Test System: AMES SALMONELLA TYPHIMURIUM, Strain/Indicator: TA100, Metabolic Activation: NONE, Method: STANDARD PLATE)?
A: inactive; negative

Q: What about the mutagenic call (Test System: AMES SALMONELLA TYPHIMURIUM, Strain/Indicator: TA100, Metabolic Activation: RAT, LIVER, MICROSOMES, 6-AMINOCHRYSENE, Method: STANDARD PLATE) of the same compound?
A: inactive; negative

Q: What about the mutagenic call (Test System: AMES SALMONELLA TYPHIMURIUM, Strain/Indicator: TA100, Metabolic Activation: RAT, LIVER, MICROSOMES, AROCLOR 1254, Method: STANDARD PLATE) of the same compound?
A: active; positive

Q: What about the mutagenic call (Test System: AMES SALMONELLA TYPHIMURIUM, Strain/Indicator: TA100, Metabolic Activation: RAT, LIVER, MICROSOMES, Method: STANDARD PLATE) of the same compound?
A: active; positive

Q: And the mutagenic call (Test System: AMES SALMONELLA TYPHIMURIUM, Strain/Indicator: TA100, Metabolic Activation: RAT, LIVER, S-9, AROCLOR 1254, Method: PREINCUBATION)?
A: active; positive

Q: What about the mutagenic call (Test System: AMES SALMONELLA TYPHIMURIUM, Strain/Indicator: TA100, Metabolic Activation: RAT, LIVER, S-9, AROCLOR 1254, Method: STANDARD PLATE) of the same compound?
A: active; positive

Q: And the mutagenic call (Test System: AMES SALMONELLA TYPHIMURIUM, Strain/Indicator: TA1535, Metabolic Activation: NONE, Method: STANDARD PLATE)?
A: inactive; negative

Q: And the mutagenic call (Test System: AMES SALMONELLA TYPHIMURIUM, Strain/Indicator: TA1535, Metabolic Activation: RAT, LIVER, S-9, AROCLOR 1254, Method: STANDARD PLATE)?
A: inactive; negative

Q: What about the mutagenic call (Test System: AMES SALMONELLA TYPHIMURIUM, Strain/Indicator: TA1537, Metabolic Activation: NONE, Method: STANDARD PLATE) of the same compound?
A: inactive; negative

Q: What about the mutagenic call (Test System: AMES SALMONELLA TYPHIMURIUM, Strain/Indicator: TA1538, Metabolic Activation: NONE, Method: STANDARD PLATE) of the same compound?
A: inactive; negative

Q: What about the mutagenic call (Test System: CHINESE HAMSTER OVARY, Strain/Indicator: CHO-K1-BH4 (HGPRT)/6-THIOGUANINE, Metabolic Activation: NONE, Method: STANDARD PLATE) of the same compound?
A: inactive; negative

Q: And the mutagenic call (Test System: CHINESE HAMSTER OVARY, Strain/Indicator: CHO-K1-BH4 (HGPRT)/6-THIOGUANINE, Metabolic Activation: RAT, LIVER, S-9, AROCLOR 1254, Method: STANDARD PLATE)?
A: active; positive

Q: What about the mutagenic call (Test System: CHINESE HAMSTER OVARY, Strain/Indicator: CHO-UV5 (HGPRT)/6-THIOGUANINE, Metabolic Activation: NONE, Method: STANDARD PLATE) of the same compound?
A: inactive; negative

Q: And the mutagenic call (Test System: CHINESE HAMSTER OVARY, Strain/Indicator: CHO-UV5 (HGPRT)/6-THIOGUANINE, Metabolic Activation: RAT, LIVER, S-9, AROCLOR 1254, Method: STANDARD PLATE)?
A: active; positive

Q: What about the mutagenic call (Test System: UDS GUINEA PIG HEPATOCYTES, Strain/Indicator: THY INCORP, Metabolic Activation: NONE, Method: AUTORADIOGRAPHY) of the same compound?
A: active; positive

Q: And the mutagenic call (Test System: UDS HUMAN HEPATOCYTES, Strain/Indicator: THY INCORP, Metabolic Activation: NONE, Method: AUTORADIOGRAPHY)?
A: active; positive

Q: What about the mutagenic call (Test System: UDS MONKEY HEPATOCYTES, Strain/Indicator: THY INCORP, Metabolic Activation: NONE, Method: AUTORADIOGRAPHY) of the same compound?
A: active; positive

Q: And the mutagenic call (Test System: UDS RAT HEPATOCYTES, Strain/Indicator: THY INCORP, Metabolic Activation: AROCLOR 1254, Method: AUTORADIOGRAPHY)?
A: active; positive

Q: And the mutagenic call (Test System: UDS RAT HEPATOCYTES, Strain/Indicator: THY INCORP, Metabolic Activation: NONE, Method: AUTORADIOGRAPHY)?
A: active; positive
